Measured values published in patent US20030108620A1, “Pharmaceutical composition comprising a physiologically acceptable vanadium compound, salt or complex and at least a component selected from a na+/hinhibitors, cyclo-oxygenase inhibitors and caspase inhibitors” (priority 1999, published 2003).

Experiments:
[1] = tested on: hearts of phenobarbital anaesthetized rats; assay: Infarcted area after 60 minutes coronary artery occlusion and 180 minutes of reperfusion in anaesthetized rats; type: in vivo, rat; conditions: for LA/AR ratio: normothermia (36.5-37.5° C.), mean±standard error margin, n=6, P<0.001, pretreated 25 minutes prior to CAO; for IA (% AR) / % Reduction: rat, 60 min CAO and 180 min reperfusion; for IA (% AR): i.v. bolus 25 minutes prior to CAO, BMOV 3.3 mg/kg, DMA 3.0 mg/kg; for % Reduction: reduction of IA (% AR) versus control
Description: Area at risk (AR) and infarcted area (IA) were determined in hearts of phenobarbital anaesthetized rats after 60 minutes coronary artery occlusion (CAO) and 180 minutes of reperfusion. […] The mean AR expressed as percentage of the left ventricle was not different between the control and the experimental group.

deep burn wounds, dermis = assay: Deep burn wound model in the Yorkshire pig, preservation of the dermis; type: in vivo, Yorkshire White; conditions: intravenously in a single dose; for % Preservation of dermis: equal dose in g/kg bodyweight
Text: The Yorkshire pig has been chosen as the experimental animal because of all animal species this domestic pig seems to be the one with morphological and functional skin characteristics nearest to human skin and so best fulfils the requirements of a model for human skin. In basic architecture it resembles human skin in the relative thickness of the epidermis and dermis, the presence of epidermal ridges, a distinct dermal papillary layer and a deep layer of subdermal fat. Compared to human the elastic fibre content of porcine dermis is relatively low, but higher than in any other species. […] Studies on the proliferation rate of porcine epidermis show parallels with those of humans. The keratinous proteins are similar. Unlike the skin of rodents, the follicular pattern in pigs and humans is relatively sparse and arranged as single hairs or in groups of two or three follicles. […] The regulation of body temperature by the skin is more evident in humans than in the pig. In the skin of the pig no eccrine glands are found. It does have apocrine glands, but their role in thermoregulation remains debatable. The vascular anatomy of pig skin consists of a three layered network; lower, mid-dermal and sub epidermal. The size, orientation and distribution of the vessels are strikingly similar to human skin, but it does differ from humans in that the sub epidermal network is less dense. The vascularisation of the lower region of the follicle corresponds to that in humans. The healing of deep dermal bums, which depends on this phenomenon, might also be analogous. Studies on the thermal properties of porcine skin as a function of depth have been performed by measuring the tissue water content.
Protocol 1a: Twelve identical deep burn wounds were inflicted in each animal. The animal model used is developed in the Burn Research Institute (Beverwijk, The Netherlands) and is a standard for all of the experimental burn wound research. The model is also accepted by the animal experimental commission of the University of Amsterdam.
Protocol 1b: Six biopsies of 6 mm of the burned area were taken from each big and transferred to a non-burned area. Six biopsies of 6 mm of the non-burned area were be taken from each pig and transferred to a burned area. (Determination of the indirect injury) Animals: pig, Yorkshire White, female, +/− 30 kg. […]

swine myocardium = conditions: also when administered after the onset of ischaemia; cited from earlier work

SMILES	LA/AR ratio [1]	IA (% AR) [1]	% Reduction [1]	protection of structures in the dermis (deep vascular plexus, hair-adnexes, sweat glands) (deep burn wounds, dermis)	% Preservation of dermis (deep burn wounds, dermis)	infarct size (swine myocardium)
Cc1occc(=O)c1[O-].Cc1occc(=O)c1[O-].[O]=[V+2] [BMOV, bis(maltolato)oxovanadium(IV)]	45±3%	45 % AR	36%	protected	40-50%	
CN(C)c1nc(N)c(C(=O)N=C(N)N)nc1Cl [DMA, dimethylamiloride]	45±3%	55 % AR	21%	protected	20%	
CS(=O)(=O)O.CS(=O)(=O)c1cc(C(=O)NC(=N)N)ccc1N1CCCCC1 [HOE 694, (3-methylsulfonyl-4-piperidinobenzoyl)-guanidine methanesulfonate]						substantial reduction of the infarct size
